Test [1] concerns DU-145. Nature of the test: The concentration levels of spermidine (SD) evaluated in DU145 cells treated with the compound concentration of 0.02 uM on third day of treatment. It is filed as functional, cell-based. The conditions noted are these: Homo sapiens.
For test [2], the system named is DU-145. Nature of the test: The concentration levels of putrescine (PU) evaluated in DU145 cells treated with the compound concentration of 2 uM on third day of treatment; Not quantifiable. The format is functional, cell-based. The conditions noted are these: Homo sapiens.
Test [3] concerns DU-145. Nature of the test: The concentration levels of analogue evaluated in DU145 cells treated with the compound concentration of 0.02 uM on third day of treatment. It is filed as functional, cell-based. The settings on record: Homo sapiens.
The test system of test [4] is DU-145. The test is described as follows: The concentration levels of spermine (SP) evaluated in DU145 cells treated with the compound concentration of 2 uM on third day of treatment. The format is functional, cell-based. The settings on record: Homo sapiens.
For test [5], the system named is DU-145. The test is described as follows: The concentration levels of putrescine (PU) evaluated in DU145 cells treated with the compound concentration of 0.02 uM on third day of treatment. The format is functional, cell-based. The conditions noted are these: Homo sapiens.
Test [6] concerns DU-145. Nature of the test: The concentration levels of putrescine (PU) evaluated in DU145 cells treated with the compound concentration of 0.02 uM on first day of treatment. The conditions noted are these: Homo sapiens. The format is functional, cell-based.
Test [7] has as its system DU-145. The test is described as follows: The concentration levels of analogue evaluated in DU145 cells treated with the compound concentration of 2 uM on third day of treatment. The format is functional, cell-based. The settings on record: Homo sapiens.
In test [8] the test system is DU-145. The test is described as follows: The concentration levels of spermine (SP), evaluated in DU145 cells treated with the compound concentration of 2 uM on first day of treatment. The format is functional, cell-based. The conditions noted are these: Homo sapiens.
The test system of test [9] is DU-145. The test is described as follows: The concentration levels of spermine (SP), evaluated in DU145 cells treated with the compound concentration of 0.02 uM on first day of treatment. It is filed as functional, cell-based. The settings on record: Homo sapiens.
Test [10] relates to DU-145. The test is described as follows: The concentration levels of spermidine (SD), evaluated in DU145 cells treated with the compound concentration of 0.02 uM on first day of treatment. The conditions noted are these: Homo sapiens. The format is functional, cell-based.
The subject of test [11] is DU-145. Nature of the test: The concentration levels of analogue evaluated in DU145 cells treated with the compound concentration of 2 uM on first day of treatment. The format is functional, cell-based. The conditions noted are these: Homo sapiens.
Test [12] concerns DU-145. Nature of the test: The concentration levels of analogue evaluated in DU145 cells treated with the compound concentration of 0.02 uM on first day of treatment. The format is functional, cell-based. The settings on record: Homo sapiens.
Test [13] has as its system DU-145. Nature of the test: The concentration levels of spermidine (SD), evaluated in DU145 cells treated with the compound concentration of 2 uM on first day of treatment. The format is functional, cell-based. The conditions noted are these: Homo sapiens.
Test [14] deals with DU-145. The test is described as follows: The concentration levels of putrescine (PU) evaluated in DU145 cells treated with the compound concentration of 2 uM on first day of treatment; Not quanitfiable. It is filed as functional, cell-based. The conditions noted are these: Homo sapiens.
In test [15] the test system is DU-145. The test is described as follows: The concentration levels of spermidine (SD) evaluated in DU145 cells treated with the compound concentration of 2 uM on third day of treatment; Not quantifiable. The format is functional, cell-based. The conditions noted are these: Homo sapiens.
Test [16] has as its system DU-145. The test is described as follows: The concentration levels of spermine (SP) evaluated in DU145 cells treated with the compound concentration of 0.02 uM on third day of treatment. The conditions noted are these: Homo sapiens. It is filed as functional, cell-based.
For a further test, the system named is U-251. The test is described as follows: Growth inhibitory activity was measured for human U251MG NCI tumor cell line. It is filed as functional. The settings on record: read-out: ID50 (the source's name).
Another test relates to HT-29. Nature of the test: Growth inhibitory activity was measured for human HT-29 tumor cell line. The format is functional. The settings on record: Homo sapiens, HT-29; read-out: ID50 (the source's name).
Test [17] relates to DU-145. The test is described as follows: Growth inhibitory activity was measured for human DU145 tumor cell line. It is filed as functional. The settings on record: read-out: ID50 (the source's name).
The next test has as its system MCF7. Nature of the test: Growth inhibitory activity was measured for human MCF-7 tumor cell line. The format is functional. The conditions noted are these: read-out: ID50 (the source's name).
Test [18] has as its system DU-145. Nature of the test: The concentration levels of analogue evaluated in DU145 cells treated with the compound concentration of 5 uM on third day of treatment. The settings on record: Homo sapiens. It is filed as functional, cell-based.
The subject of test [19] is DU-145. Nature of the test: The concentration levels of analogue evaluated in DU145 cells treated with the compound concentration of 0.02 uM on fifth day of treatment. The format is functional, cell-based. The settings on record: Homo sapiens.
Test [20] relates to DU-145. Nature of the test: The concentration levels of spermine (SP), evaluated in DU145 cells treated with the compound concentration of 5 uM on third day of treatment. The format is functional, cell-based. The settings on record: Homo sapiens.
The test system of test [21] is DU-145. The test is described as follows: The concentration levels of spermidine (SD), evaluated in DU145 cells treated with the compound concentration of 0.02 uM on third day of treatment. It is filed as functional, cell-based. The conditions noted are these: Homo sapiens.
Test [22] relates to DU-145. The test is described as follows: The concentration levels of spermidine (SD) evaluated in DU145 cells treated with the compound concentration of 5 uM on fifth day of treatment. The settings on record: Homo sapiens. The format is functional, cell-based.
Test [23] has as its system DU-145. Nature of the test: The concentration levels of spermine (SP) evaluated in DU145 cells treated with the compound concentration of 5 uM on fifth day of treatment. It is filed as functional, cell-based. The settings on record: Homo sapiens.
In test [24] the test system is DU-145. Nature of the test: The concentration levels of putrescine (PU) evaluated in DU145 cells treated with the compound concentration of 5 uM on third day of treatment. The format is functional, cell-based. The conditions noted are these: Homo sapiens.
In test [25] the test system is DU-145. The test is described as follows: The concentration levels of spermine (SP), evaluated in DU145 cells treated with the compound concentration of 0.02 uM on third day of treatment. The settings on record: Homo sapiens. It is filed as functional, cell-based.
Test [26] concerns DU-145. The test is described as follows: The concentration levels of spermine (SP) evaluated in DU145 cells treated with the compound concentration of 0.02 uM on fifth day of treatment. The format is functional, cell-based. The settings on record: Homo sapiens.
Test [27] relates to DU-145. Nature of the test: The concentration levels of spermidine (SD) evaluated in DU145 cells treated with the compound concentration of 0.02 uM on fifth day of treatment. It is filed as functional, cell-based. The conditions noted are these: Homo sapiens.
Test [28] deals with DU-145. The test is described as follows: The concentration levels of putrescine (PU) evaluated in DU145 cells treated with the compound concentration of 0.02 uM on fifth day of treatment. The format is functional, cell-based. The conditions noted are these: Homo sapiens.
For test [29], the system named is DU-145. The test is described as follows: The concentration levels of spermidine (SD), evaluated in DU145 cells treated with the compound concentration of 5 uM on third day of treatment. It is filed as functional, cell-based. The conditions noted are these: Homo sapiens.
Test [30] relates to DU-145. The test is described as follows: The concentration levels of putrescine (PU) evaluated in DU145 cells treated with the compound concentration of 5 uM on fifth day of treatment. The settings on record: Homo sapiens. The format is functional, cell-based.
In test [31] the test system is DU-145. Nature of the test: The concentration levels of analogue evaluated in DU145 cells treated with the compound concentration of 5 uM on fifth day of treatment. The conditions noted are these: Homo sapiens. The format is functional, cell-based.
Another test has as its system PC-3. The test is described as follows: Growth inhibitory activity was measured for human PC-3 tumor cell line. It is filed as functional. The conditions noted are these: read-out: ID50 (the source's name).
The test system of a further test is A549. The test is described as follows: Growth inhibitory activity was measured for human A549 tumor cell line. The format is functional. The conditions noted are these: Homo sapiens, A549; read-out: ID50 (the source's name).

Regarding `CCNCCCNCC1CC1CNCCCNCC` (stereo in doubt; 9), the Concentration (nM (10e6*cells)-1) stood at 1.01 with DU-145 [1]; 0.15 with DU-145 [3]; 0.06 in the test on DU-145 [4]; 0.05 in the test with DU-145 [5]; 0.18 with DU-145 [6]; 3.97 in the test with DU-145 [7]. Also, the Concentration (nM (10e6*cells)-1) in the test with DU-145 [8] came out at 0.4; in the test with DU-145 [9] it was 2.16; with DU-145 [10], 1.64; in the test with DU-145 [11] it was 4.08; with DU-145 [12], 0.9; with DU-145 [13] it was 0.1. This compound also yielded a Concentration (nM (10e6*cells)-1) in the test with DU-145 [16] of 1.97. In addition, the Concentration result in the test on DU-145 [2], in the test on DU-145 [14] and in the test on DU-145 [15] was “Not quantifiable” in each case.
As to `CCNCCCNCC1CCC1CNCCCNCC` (stereo in doubt; 15) [listing 1 of 2 here], the IC50 in the test with U-251 is 120 nM; in the test on HT-29, 1600 nM; in the test with DU-145 [17], 10 nM; with MCF7, > 31200 nM.
In the case of `CCNCCCNCC1CCC1CNCCCNCC` (stereo in doubt; 15) [listing 2 of 2 here], the Concentration (nM (10e6*cells)-1) in the test with DU-145 [18] was 1.75; in the test on DU-145 [19], 0.05; with DU-145 [3] it was 0.07; with DU-145 [20], 0.49; in the test with DU-145 [5], 0.162; in the test on DU-145 [21], 2.13. Besides, the Concentration (nM (10e6*cells)-1) with DU-145 [22] amounted to 0.06; with DU-145 [23], 0.2; with DU-145 [24] it was 0.036; in the test on DU-145 [25] it was 3.54; in the test on DU-145 [26], 2.1; in the test on DU-145 [27], 1.6. Also, the Concentration (nM (10e6*cells)-1) with DU-145 [28] was 0.081; in the test with DU-145 [29], 0.15; with DU-145 [30] it was 0.031; in the test with DU-145 [31] it was 1.84.
As to `CCNCCCNCC1CCC1CNCCCNCC` (stereo in doubt; 19), the values for the IC50 with PC-3 and with DU-145 [17] were > 31200 nM and 50 nM, respectively.
Regarding `CCNCCCNCCCCNCCCNCC` [BIS(ETHYL)SPERMINE], the IC50 in the test on U-251 was 200 nM; in the test on PC-3 (Homo sapiens, PC-3) it was 240 nM; with HT-29, 430 nM; in the test on A549, 200 nM; in the test with DU-145 [17] (Homo sapiens, DU-145), 40 nM; in the test on MCF7, 550 nM.

The record behind these values is ChEMBL document CHEMBL1131189, “Conformationally restricted analogues of 1N,12N-bisethylspermine: synthesis and growth inhibitory effects on human tumor cell lines” (1998).
